{"source": "patent US6518262B1", "about": "“22R-hydroxycholesta-8, 14-diene derivatives for the inhibition of meiosis” (Akzo Nobel N.V., priority 1999, dated 2003)", "key": {"[1]": {"system": "denuded oocytes (DO)", "test": "Oocyte assay, antagonistic testing, inhibition of FF-Mas induced maturation in denuded oocytes (DO assay)", "type": "cell-based, mice (B6D2-F1, strain C57BL×DBA)", "conditions": "FF-Mas 5 μM, compound tested 5 μM, control (FF-Mas alone) in brackets", "method": "(§1) The meiosis inhibiting activity of the 22R-hydroxycholesta-8,14-diene derivatives of the invention is measured in an in vitro oocyte assay as the ability to inhibit the FF-Mas or 22S-hydroxy-FF-Mas induced maturation, in hypoxanthine media, in denuded oocytes (DO) or cumulus enclosed oocytes (CEO), respectively. Natural resumption of meiosis can be mimicked in vitro by addition of FF-Mas or other agonists to the culture medium containing hypoxanthine. The antagonistic activity of the compounds is measured as the ability to inhibit the FF-Mas or 22S-hydroxy-FF-Mas induced oocyte maturation in denuded oocytes or cumulus enclosed oocytes, respectively, in vitro. Ovaries are obtained from immature female mice (B6D2-F1, strain C57BL×DBA). At the age of 19, 20 or 21 days the mice are injected subcutaneously with a single dose of 20 IU follicle stimulating hormone (Humegon, Organon, The Netherlands) in saline. Forty-eight hours after follicle stimulating hormone injection mice are killed by cervical dislocation. The ovaries are removed, freed of extraneous tissue and placed in a multidish containing 0.5 ml preparation medium at 37° C. L-15 Leibovitz medium (Gibco, pH 7.3±0.1) supplemented with bovine serum albumin (3 mg·ml^−1), L-glutamine (0.23 mM), sodium pyruvate (2 mM) and hypoxanthine (4 mM) is used as preparation medium. The antral follicles of the ovaries are punctured under a dissecting microscope using two 27-gauge needles attached to two 1 ml syringes. […] At t=0 the number of oocytes with intact germinal vesicles (GV) or germinal vesicle break-down (GVBD) is counted under an inverted microscope with differential interference contrast equipment. […] At the end of the culture period the number of oocytes with GV or GVBD per group is counted. For statistical analysis the percentage germinal vesicle breakdown is calculated for each group in one block. These percentages are subjected to arcsin transformation, and differences between control and test compounds are analyzed by an ANOVA test for a randomized block design. […]"}, "[2]": {"system": "cumulus enclosed oocytes (CEO)", "test": "Oocyte assay, antagonistic testing, inhibition of 22S-hydroxy-FF-Mas induced maturation in cumulus enclosed oocytes (CEO assay)", "type": "cell-based, mice (B6D2-F1, strain C57BL×DBA)", "conditions": "22S-hydroxy-FF-Mas 5 μM, control (22S-hydroxy-FF-Mas alone) in brackets", "method": "as §1"}, "[3]": {"target": "T1, LXRα receptor (Homo sapiens, UniProt Q13133)", "T1 sequence (Q13133 1-447)": "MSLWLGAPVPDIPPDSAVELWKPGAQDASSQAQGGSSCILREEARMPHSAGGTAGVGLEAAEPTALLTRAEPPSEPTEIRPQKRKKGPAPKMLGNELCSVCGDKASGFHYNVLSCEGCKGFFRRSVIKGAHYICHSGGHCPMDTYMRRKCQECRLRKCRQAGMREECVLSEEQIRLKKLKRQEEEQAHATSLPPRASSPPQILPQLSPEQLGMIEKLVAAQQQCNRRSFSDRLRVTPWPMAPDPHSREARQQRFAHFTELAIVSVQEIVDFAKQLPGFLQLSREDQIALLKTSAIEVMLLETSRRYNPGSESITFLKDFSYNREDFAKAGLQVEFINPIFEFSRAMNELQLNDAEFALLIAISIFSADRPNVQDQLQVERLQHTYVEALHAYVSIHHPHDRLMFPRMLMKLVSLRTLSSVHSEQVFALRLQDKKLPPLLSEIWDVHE", "conditions": "among a series of hydroxycholestane derivatives; cited from earlier work"}, "[4]": {"system": "naturally occurring meiosis activating substance", "conditions": "as disclosed in WO98/28323; cited from earlier work"}}}
{"smiles": "CC(C)CC[C@@H](O)[C@@H](C)[C@H]1CC[C@H]2[C@@H]3CC=C4C[C@@H](O)CC[C@]4(C)[C@H]3CC[C@]12C", "note": "[22R-hydroxycholesterol]", "values": [{"measurement": "% GVBD DO assay exp.", "setting": "[1]", "value": "38(89) %"}, {"measurement": "% GVBD CEO assay exp.", "setting": "[2]", "value": "52(89)^4%"}, {"measurement": "activation of the LXRα receptor", "setting": "[3]", "value": "most potent activator of the LXRα receptor"}, {"measurement": "antagonist activity (meiosis regulating)", "setting": "[4]", "value": "only weakly active as an antagonist"}]}
